Here are results for seven molecules from ChEMBL document CHEMBL1156032, “Potent small molecule mouse CD22-inhibitors: exploring the interaction of the residue at C-2 of sialic acid scaffold” (Bioorg Med Chem Lett, 2009).

One assay has as its target T1, B-cell receptor CD22 (Mus musculus, UniProt P35329).
T1 sequence (P35329 whole entry): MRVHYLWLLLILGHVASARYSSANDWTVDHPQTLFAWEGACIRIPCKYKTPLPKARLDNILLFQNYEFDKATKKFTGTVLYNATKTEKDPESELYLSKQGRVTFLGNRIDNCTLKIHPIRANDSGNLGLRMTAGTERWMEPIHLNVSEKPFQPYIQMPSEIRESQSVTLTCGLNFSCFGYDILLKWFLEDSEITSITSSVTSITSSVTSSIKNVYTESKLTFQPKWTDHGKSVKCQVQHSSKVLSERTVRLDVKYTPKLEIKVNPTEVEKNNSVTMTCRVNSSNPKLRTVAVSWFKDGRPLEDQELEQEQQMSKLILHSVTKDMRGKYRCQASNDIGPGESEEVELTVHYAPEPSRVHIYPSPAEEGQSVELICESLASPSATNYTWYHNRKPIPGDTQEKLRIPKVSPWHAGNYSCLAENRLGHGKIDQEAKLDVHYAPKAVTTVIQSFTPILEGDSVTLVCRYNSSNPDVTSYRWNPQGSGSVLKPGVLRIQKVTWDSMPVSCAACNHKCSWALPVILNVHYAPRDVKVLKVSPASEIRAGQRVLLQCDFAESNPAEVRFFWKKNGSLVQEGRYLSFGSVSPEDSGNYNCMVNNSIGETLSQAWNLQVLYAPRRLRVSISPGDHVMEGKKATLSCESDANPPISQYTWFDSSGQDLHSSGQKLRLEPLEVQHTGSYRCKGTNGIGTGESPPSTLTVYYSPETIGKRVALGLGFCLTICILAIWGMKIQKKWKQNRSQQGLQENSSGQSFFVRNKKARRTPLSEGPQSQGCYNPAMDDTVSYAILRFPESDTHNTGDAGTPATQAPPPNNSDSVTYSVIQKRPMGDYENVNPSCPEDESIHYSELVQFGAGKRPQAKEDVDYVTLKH
Briefly: Binding affinity to mouse CD22 after 1 hr by competition ELISA.

The target of assay [1] is T2, B-cell receptor CD22 (Mus musculus) (UniProt P35329).
T2 sequence (whole entry): T1 sequence (P35329 whole entry)
Briefly: Ratio of 9-([…]-4-biphenyl)acetamido-9-deoxy- Neu5Gca2-6GalOMP IC50 to compound IC50 for mouse CD22 after 1 hr by competition ELISA.

Structures are written as SMILES.

At B-cell receptor CD22, `C[Si](C)(C)CCO[C@@H]1O[C@H](CO[C@]2(C(=O)O)C[C@H](O)[C@H](NC(=O)CO)[C@H]([C@H](O)[C@H](O)CO)O2)[C@H](O)[C@H](O)[C@H]1O` yielded an IC50 of 545 µM. On the same count and under the same terms, as for `CC(=O)N[C@@H]1[C@H]([C@H](O)[C@H](O)CO)O[C@@](OC[C@H]2O[C@@H](OCC[Si](C)(C)C)[C@H](O)[C@@H](O)[C@H]2O)(C(=O)O)C[C@@H]1O`, the figure is greater than 1000 µM. The same measure, in the same setting: then `COc1ccc(O[C@@H]2O[C@H](CO[C@]3(C(=O)O)C[C@H](O)[C@H](NC(=O)CO)[C@H]([C@H](O)[C@H](O)CN)O3)[C@H](O)[C@H](O)[C@H]2O)cc1`, with 82.9 µM. Turning to `O=C(Cc1ccc(-c2ccc(O)cc2)cc1)NC[C@@H](O)[C@@H](O)[C@@H]1O[C@@](OCc2ccccc2)(C(=O)O)C[C@H](O)[C@@H]1NC(=O)CO`, the Ratio IC50 in assay [1] worked out at 38.4. Moreover, the IC50 at B-cell receptor CD22 was 0.1 µM.

As to `COc1ccc(O[C@@H]2O[C@H](CO[C@]3(C(=O)O)C[C@H](O)[C@H](NC(=O)CO)[C@H]([C@H](O)[C@H](O)CO)O3)[C@H](O)[C@H](O)[C@H]2O)cc1`, the half-maximal inhibitory concentration (IC50) at B-cell receptor CD22 turned out to be 305 µM. For the molecule `COc1ccc(O[C@@H]2O[C@H](CO[C@]3(C(=O)O)C[C@H](O)[C@H](NC(=O)CO)[C@H]([C@H](O)[C@H](O)CNC(=O)Cc4ccc(-c5ccc(O)cc5)cc4)O3)[C@H](O)[C@H](O)[C@H]2O)cc1`, the Ratio IC50 in assay [1] came to 1. As for `O=C(Cc1ccc(-c2ccc(O)cc2)cc1)NC[C@@H](O)[C@@H](O)[C@@H]1O[C@@](OCc2ccc(-c3ccccc3)cc2)(C(=O)O)C[C@H](O)[C@@H]1NC(=O)CO`, the Ratio IC50 in assay [1] was determined as 20.2. Moreover, the half-inhibitory concentration (IC50) at B-cell receptor CD22 worked out at 0.19 µM.
